Test results: patent US6723364B1, “Fog treatment method using a liquid composition for treating fruits and vegetables and implementing device” (Xeda International, priority 1998, dated 2004)

How the values were obtained:
Assay type in all cases: cell-based
[1] = tested on: species of fungus (AA, BC, FO, GC, GR, PD, PE, PV, PhP); experiment: Fungicidal activity in vitro: total of inhibition grades over the nine species of fungus; conditions: sum of the grades over the nine fungi
Description: The Cristomalt medium used for the evaluations of the fungicidal activities comprises 0.1% of Cristomalt (malt extract) and 0.2% of agar.
This culture medium is, after sterilization, brought to 55° C. The terpene compound tested is then introduced in the pure form into the culture medium under warm conditions. Immediately after agitating, the medium, enriched with the terpene product, is poured into Petri dishes (diameter 9 cm, filled with 20 ml of medium). The agar-comprising medium solidifies on cooling. The Petri dishes are then inoculated with plugs, with a diameter of 6 mm, withdrawn from the edge of a culture of the tested fungus, which culture is obtained on Cristomalt medium.
Inoculation is carried out at 22° C.
The mycelial growth was determined periodically (5 to 15 days, according to the species of fungus).
The results obtained are analysed simply by using the assessment scale illustrated in Table 2:
The results obtained have been expressed in Table 3 using the scale in Table 2.

Alternaria alternata = experiment: Germination of the spores in vitro; conditions: AA;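 note: ++ germination like control and 0 no spores germinated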
Description: (§1) The activity of eugenol and of isoeugenol on the germination of the spores was evaluated in vitro and compared with that of other terpenes.
(§2) The procedure of Example 4 is used to do this, except that the concentration of eugenol and of isoeugenol was set at x μg/ml in the culture media used and that 50 μl of a suspension of spores, adjusted to 100,000 spores/ml, are deposited in each Petri dish.
(§3) The same experiment was carried out starting with a terpene-free culture medium (control test).
(§4) The results were evaluated using the following assessment criteria:
(§5) +: considerable reduction in the level of spores germinated
(§6) The results obtained for 3 different concentrations of terpenes in the culture medium, namely 40 μg/ml, 80 μg/ml and 1280 μg/ml, are listed in Tables 4, 5 and 6.

Botrytis cinerea = experiment: Germination of the spores in vitro; conditions: BC
Description: as §1, §2, §3, §4, §5, §6

Fusarium oxysporum = experiment: Germination of the spores in vitro; conditions: FO;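 note: ++ germination like control and 0 no spores germinated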
Description: as §1, §2, §3, §4, §5, §6

Geocrichum candidum = experiment: Germination of the spores in vitro; conditions: GC
Description: as §1, §2, §3, §4, §5, §6

Penicillium digitatum = experiment: Germination of the spores in vitro; conditions: PD
Description: as §1, §2, §3, §4, §5, §6

Penicillium expansum = experiment: Germination of the spores in vitro; conditions: PE;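 note: ++ germination like control and 0 no spores germinated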
Description: as §1, §2, §3, §4, §5, §6

[2] = tested on: Phlyctaena vagabonda (“Gloeosporium”); experiment: Germination of the spores in vitro; conditions: PV;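 note: ++ germination like control and 0 no spores germinated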
Description: as §1, §2, §3, §4, §5, §6

Phytophtora parasitica = experiment: Germination of the spores in vitro; conditions: PhP
Description: as §1, §2, §3, §4, §5, §6

spores = experiment: Germination of the spores in vitro, summary over the fungi tested; conditions: summary of Tables 4 to 6
Description: as §1, §2, §3, §6
A concentration of 40 μg/ml is sufficient to inhibit the germination of the spores.

| SMILES | Total of the degrees of inhibition [1] | germination of the spores (Alternaria alternata; x = 40 μg/ml) | germination of the spores (Alternaria alternata; x = 80 μg/ml) | germination of the spores (Alternaria alternata; x = 1280 μg/ml) | germination of the spores (Botrytis cinerea; x = 40 μg/ml) | germination of the spores (Botrytis cinerea; x = 80 μg/ml) | germination of the spores (Botrytis cinerea; x = 1280 μg/ml) | germination of the spores (Fusarium oxysporum; x = 40 μg/ml) | germination of the spores (Fusarium oxysporum; x = 80 μg/ml) | germination of the spores (Fusarium oxysporum; x = 1280 μg/ml) | germination of the spores (Geocrichum candidum; x = 40 μg/ml) | germination of the spores (Geocrichum candidum; x = 80 μg/ml) | germination of the spores (Geocrichum candidum; x = 1280 μg/ml) | germination of the spores (Penicillium digitatum; x = 40 μg/ml) | germination of the spores (Penicillium digitatum; x = 80 μg/ml) | germination of the spores (Penicillium digitatum; x = 1280 μg/ml) | germination of the spores (Penicillium expansum; x = 40 μg/ml) | germination of the spores (Penicillium expansum; x = 80 μg/ml) | germination of the spores (Penicillium expansum; x = 1280 μg/ml) | germination of the spores ([2]; x = 40 μg/ml) | also measured |
| --- | --- | --- | --- | --- | --- | --- | --- | --- | --- | --- | --- | --- | --- | --- | --- | --- | --- | --- | --- | --- | --- |
| C=C(C)C1CC=C(C)C(=O)C1 (stereo not shown) [CARVONE, carvone] | 52 | + | 0 | 0 | + | 0 | 0 | + | 0 | 0 | + | 0 | 0 | + | 0 | 0 | + | 0 | 0 | + | germination of the spores ([2]; x = 80 μg/ml): 0; germination of the spores ([2]; x = 1280 μg/ml): 0; germination of the spores (Phytophtora parasitica; x = 40 μg/ml): 0; germination of the spores (Phytophtora parasitica; x = 80 μg/ml): 0; germination of the spores (Phytophtora parasitica; x = 1280 μg/ml): 0 |
| CC12CCC(CC1)C(C)(C)O2 [EUCALYPTOL, eucalyptol] | 20 | ++ | ++ | 0 | ++ | ++ | 0 | ++ | ++ | 0 | ++ | + | 0 | + | + | + | + | + | + | ++ | germination of the spores ([2]; x = 80 μg/ml): +; germination of the spores ([2]; x = 1280 μg/ml): 0; germination of the spores (Phytophtora parasitica; x = 40 μg/ml): ++; germination of the spores (Phytophtora parasitica; x = 80 μg/ml): +; germination of the spores (Phytophtora parasitica; x = 1280 μg/ml): 0 |
| C=CCc1ccc(O)c(OC)c1 [EUGENOL, eugenol] | 63 | 0 | 0 | 0 | 0 | 0 | 0 | 0 | 0 | 0 | 0 | 0 | 0 | 0 | 0 | 0 | 0 | 0 | 0 | 0 | germination of the spores ([2]; x = 80 μg/ml): 0; germination of the spores ([2]; x = 1280 μg/ml): 0; germination of the spores (Phytophtora parasitica; x = 40 μg/ml): 0; germination of the spores (Phytophtora parasitica; x = 80 μg/ml): 0; germination of the spores (Phytophtora parasitica; x = 1280 μg/ml): 0; concentration sufficient to inhibit the germination of the spores (spores): 40 µg/mL |
| CC=Cc1ccc(O)c(OC)c1 [ISOEUGENOL, isoeugenol] | 64 | 0 | 0 | 0 | ++ | 0 | 0 | 0 | 0 | 0 | 0 | 0 | 0 | 0 | 0 | 0 | 0 | 0 | 0 | 0 | germination of the spores ([2]; x = 80 μg/ml): 0; germination of the spores ([2]; x = 1280 μg/ml): 0; germination of the spores (Phytophtora parasitica; x = 40 μg/ml): 0; germination of the spores (Phytophtora parasitica; x = 80 μg/ml): 0; germination of the spores (Phytophtora parasitica; x = 1280 μg/ml): 0; concentration sufficient to inhibit the germination of the spores (spores): 40 µg/mL |
| C=CCc1ccc2c(c1)OCO2 [SAFROLE, safrole] | 42 | ++ | + | 0 | + | 0 | 0 | ++ | + | 0 | ++ | + | 0 | + | + | 0 | + | + | + | + | germination of the spores ([2]; x = 80 μg/ml): +; germination of the spores ([2]; x = 1280 μg/ml): 0; germination of the spores (Phytophtora parasitica; x = 40 μg/ml): 0; germination of the spores (Phytophtora parasitica; x = 80 μg/ml): 0; germination of the spores (Phytophtora parasitica; x = 1280 μg/ml): 0 |
